Source: the supplement of paper PMC7214452
Counter-ions that a name gives are not always drawn.

Key:
Assay in all cases: normalized area under the dose-response curve (viability relative to DMSO control) (fraction); higher = less sensitive (more viable cells)
Conditions in all cases: exposure time not given
KMS26 (cancer type: MM) = system: KMS26 (cancer type: MM)
Protocol: (§1)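 25 myeloma and 15 non-Hodgkin lymphoma cell lines were exposed to each of 76 drugs as 7-point log dilutions (0.01 nM–10 µM) in duplicate. Viability was read with CellTiter-Glo and normalised to DMSO (0.1%) and staurosporine (10 µM) plate controls. Normalised AUC was calculated by the trapezoidal method relative to the negative control.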

[1] = system: KMS12PE (cancer type: MM)
Protocol: as §1

[2] = system: SU-DHL1 (cancer type: TCL)
Protocol: as §1

[3] = system: JVM2 (cancer type: Mantle)
Protocol: as §1

[4] = system: OCI-MY5 (cancer type: MM)
Protocol: as §1

XG2 (cancer type: MM) = system: XG2 (cancer type: MM)
Protocol: as §1

[5] = system: SU-DHL2 (cancer type: DLBCL)
Protocol: as §1

[6] = system: Mino (cancer type: Mantle)
Protocol: as §1

OPM2 (cancer type: MM) = system: OPM2 (cancer type: MM)
Protocol: as §1

AMO1 (cancer type: MM) = system: AMO1 (cancer type: MM)
Protocol: as §1

Se-Ax (cancer type: TCL) = system: Se-Ax (cancer type: TCL)
Protocol: as §1

SKMM2 (cancer type: MM) = system: SKMM2 (cancer type: MM)
Protocol: as §1

[7] = system: KMS28BM (cancer type: MM)
Protocol: as §1

My-La (cancer type: TCL) = system: My-La (cancer type: TCL)
Protocol: as §1

[8] = system: NCI-H929 (cancer type: MM)
Protocol: as §1

MM1.R (cancer type: MM) = system: MM1.R (cancer type: MM)
Protocol: as §1

[9] = system: OCI-LY1 (cancer type: DLBCL)
Protocol: as §1

[10] = system: RPMI 8226 (cancer type: MM)
Protocol: as §1

[11] = system: OCI-LY19 (cancer type: DLBCL)
Protocol: as §1

[12] = system: OCI-MY7 (cancer type: MM)
Protocol: as §1

[13] = system: OCI-MY5/CRBN (cancer type: MM)
Protocol: as §1

JJN3 (cancer type: MM) = system: JJN3 (cancer type: MM)
Protocol: as §1

[14] = system: Karpas-299 (cancer type: TCL)
Protocol: as §1

[15] = system: SR-786 (cancer type: TCL)
Protocol: as §1

EJM (cancer type: MM) = system: EJM (cancer type: MM)
Protocol: as §1

[16] = system: KMS28PE (cancer type: MM)
Protocol: as §1

LP1 (cancer type: MM) = system: LP1 (cancer type: MM)
Protocol: as §1

[17] = system: OCI-LY3 (cancer type: DLBCL)
Protocol: as §1

[18] = system: HuT 78 (cancer type: TCL)
Protocol: as §1

L363 (cancer type: MM) = system: L363 (cancer type: MM)
Protocol: as §1

KMS18 (cancer type: MM) = system: KMS18 (cancer type: MM)
Protocol: as §1

MM1.S (cancer type: MM) = system: MM1.S (cancer type: MM)
Protocol: as §1

[19] = system: JeKo-1 (cancer type: Mantle)
Protocol: as §1

U266 (cancer type: MM) = system: U266 (cancer type: MM)
Protocol: as §1

FR4 (cancer type: MM) = system: FR4 (cancer type: MM)
Protocol: as §1

[20] = system: SU-DHL6 (cancer type: DLBCL)
Protocol: as §1

[21] = system: Granta-519 (cancer type: Mantle)
Protocol: as §1

KMS34 (cancer type: MM) = system: KMS34 (cancer type: MM)
Protocol: as §1

KMS11 (cancer type: MM) = system: KMS11 (cancer type: MM)
Protocol: as §1

[22] = system: OCI-MY5/Vec (cancer type: MM)
Protocol: as §1

SMILES | normalized area under the dose-response curve (KMS26 (cancer type: MM)) | normalized area under the dose-response curve [1] | normalized area under the dose-response curve [2] | normalized area under the dose-response curve [3] | normalized area under the dose-response curve [4] | normalized area under the dose-response curve (XG2 (cancer type: MM)) | normalized area under the dose-response curve [5] | normalized area under the dose-response curve [6] | normalized area under the dose-response curve (OPM2 (cancer type: MM)) | normalized area under the dose-response curve (AMO1 (cancer type: MM)) | normalized area under the dose-response curve (Se-Ax (cancer type: TCL)) | normalized area under the dose-response curve (SKMM2 (cancer type: MM)) | normalized area under the dose-response curve [7] | normalized area under the dose-response curve (My-La (cancer type: TCL)) | normalized area under the dose-response curve [8] | normalized area under the dose-response curve (MM1.R (cancer type: MM)) | normalized area under the dose-response curve [9] | normalized area under the dose-response curve [10] | normalized area under the dose-response curve [11] | normalized area under the dose-response curve [12] | normalized area under the dose-response curve [13] | normalized area under the dose-response curve (JJN3 (cancer type: MM)) | normalized area under the dose-response curve [14] | normalized area under the dose-response curve [15] | normalized area under the dose-response curve (EJM (cancer type: MM)) | normalized area under the dose-response curve [16] | normalized area under the dose-response curve (LP1 (cancer type: MM)) | normalized area under the dose-response curve [17] | normalized area under the dose-response curve [18] | normalized area under the dose-response curve (L363 (cancer type: MM)) | normalized area under the dose-response curve (KMS18 (cancer type: MM)) | normalized area under the dose-response curve (MM1.S (cancer type: MM)) | normalized area under the dose-response curve [19] | normalized area under the dose-response curve (U266 (cancer type: MM)) | normalized area under the dose-response curve (FR4 (cancer type: MM)) | normalized area under the dose-response curve [20] | normalized area under the dose-response curve [21] | normalized area under the dose-response curve (KMS34 (cancer type: MM)) | normalized area under the dose-response curve (KMS11 (cancer type: MM)) | normalized area under the dose-response curve [22]
Nc1nc(Cl)nc2c1ncn2[C@H]1C[C@H](O)[C@@H](CO)O1 [Cladribine] | 0.795 | 0.84 | 0.167 | 0.748 | 0.929 | 0.452 | 0.861 | 0.27 | 0.984 | 0.672 | 0.627 | 0.763 | 0.768 | 0.813 | 0.52 | 0.56 | 0.884 | 0.939 | 0.919 | 0.79 | 0.961 | 0.993 | 0.89 | 0.766 | 0.555 | 0.533 | 0.762 | 0.311 | 0.825 | 0.826 | 0.798 | 0.49 | 0.185 | 0.918 | 1.01 | 0.843 | 0.523 | 0.734 | 0.854 | 0.89
Nc1nc(Cl)nc2c1ncn2[C@@H]1O[C@H](CO)[C@@H](O)[C@@H]1F [Clofarabine] | 0.592 | 0.66 | 0.236 | 0.594 | 0.915 | 0.346 | 0.662 | 0.274 | 0.871 | 0.489 | 0.451 | 0.728 | 0.617 | 0.685 | 0.43 | 0.45 | 0.5 | 0.727 | 0.472 | 0.74 | 0.927 | 0.559 | 0.759 | 0.851 | 0.477 | 0.422 | 0.686 | 0.119 | 0.727 | 0.667 | 0.794 | 0.36 | 0.138 | 0.595 | 0.973 | 0.573 | 0.35 | 0.536 | 0.578 | 0.807
O=C(c1ccc(F)c(F)c1Nc1ccc(I)cc1F)N1CC(O)([C@@H]2CCCCN2)C1 [Cobimetinib] | 0.766 | 0.75 | 0.383 | 0.724 | 0.587 | 0.501 | 0.873 | 0.887 | 0.629 | 0.392 | 0.538 | 0.813 | 0.731 | 0.857 | 0.6 | 0.65 | 0.996 | 0.736 | 0.923 | 0.68 | 0.822 | 0.742 | 0.842 | 0.808 | 0.54 | 0.608 | 0.634 | 0.9 | 0.807 | 0.556 | 0.588 | 0.69 | 0.878 | 0.767 | 0.696 | 0.83 | 0.888 | 0.494 | 0.722 | 0.843
CC1(COc2ccc3c(c2)ncn3-c2ccc3cccc(N4CCC(N)CC4)c3n2)COC1 [Crenolanib] | 0.616 | 0.53 | 0.49 | 0.672 | 0.269 | 0.339 | 0.949 | 0.818 | 0.452 | 0.325 | 0.594 | 0.663 | 0.46 | 0.779 | 0.45 | 0.53 | 0.704 | 0.464 | 0.861 | 0.53 | 0.549 | 0.481 | 0.855 | 0.879 | 0.436 | 0.407 | 0.409 | 0.773 | 0.569 | 0.459 | 0.45 | 0.52 | 0.746 | 0.426 | 0.59 | 0.894 | 0.91 | 0.423 | 0.488 | 0.541
C[C@@H](Oc1cc(-c2cnn(C3CCNCC3)c2)cnc1N)c1c(Cl)ccc(F)c1Cl [Crizotinib] | 0.577 | 0.54 | 0.0611 | 0.654 | 0.381 | 0.338 | 0.833 | 0.731 | 0.457 | 0.362 | 0.368 | 0.487 | 0.358 | 0.744 | 0.39 | 0.44 | 0.817 | 0.34 | 0.733 | 0.73 | 0.75 | 0.405 | 0.437 | 0.406 | 0.471 | 0.323 | 0.465 | 0.765 | 0.359 | 0.447 | 0.456 | 0.4 | 0.677 | 0.335 | 0.509 | 0.831 | 0.769 | 0.306 | 0.423 | 0.703
O=P1(N(CCCl)CCCl)NCCCO1 (stereo not given) [Cyclophosphamide] | 0.956 | 0.91 | 0.937 | 0.943 | 0.913 | 0.878 | 0.929 | 0.907 | 0.912 | 0.884 | 0.865 | 0.949 | 0.923 | 0.962 | 0.93 | 0.88 | 0.958 | 0.887 | 0.983 | 0.92 | 0.972 | 0.95 | 0.931 | 0.911 | 0.93 | 0.863 | 0.977 | 0.885 | 0.928 | 0.831 | 0.944 | 0.9 | 0.915 | 0.862 | 0.918 | 0.969 | 1 | 0.791 | 0.822 | 0.86
CC(C)(C)c1nc(-c2cccc(NS(=O)(=O)c3c(F)cccc3F)c2F)c(-c2ccnc(N)n2)s1 [Dabrafenib mesylate] | 0.972 | 0.75 | 0.833 | 0.587 | 0.733 | 0.932 | 0.889 | 0.775 | 0.829 | 0.643 | 0.775 | 0.827 | 0.979 | 0.908 | 0.78 | 0.84 | 0.984 | 0.851 | 0.861 | 0.81 | 0.906 | 0.804 | 0.752 | 0.851 | 0.775 | 0.85 | 0.836 | 0.89 | 0.812 | 0.787 | 0.735 | 0.9 | 0.858 | 0.754 | 0.939 | 0.882 | 0.898 | 0.84 | 0.831 | 0.858
Cc1nc(Nc2ncc(C(=O)Nc3c(C)cccc3Cl)s2)cc(N2CCN(CCO)CC2)n1 [Dasatinib] | 0.868 | 0.48 | 0.862 | 0.611 | 0.701 | 0.746 | 0.894 | 0.745 | 0.802 | 0.72 | 0.82 | 0.906 | 0.994 | 0.841 | 0.74 | 0.76 | 0.66 | 0.739 | 0.718 | 0.82 | 0.824 | 0.581 | 0.875 | 0.843 | 0.702 | 0.731 | 0.712 | 0.727 | 0.768 | 0.813 | 0.765 | 0.75 | 0.778 | 0.616 | 0.816 | 0.754 | 0.783 | 0.612 | 0.686 | 0.79
